The text below walks through data of ChEMBL document CHEMBL6127119 (J Med Chem, 2024).

Broadly, the MIC is the lowest concentration that inhibits growth of the organism. Higher therefore signals a need for much substance.

What all share (type): functional
Conditions in all cases: time 16-24 hrs

Experiment [1] concerns Enterococcus faecium. In words: Antibacterial activity against vancomycin-resistant Enterococcus faecium harboring VanA phenotype incubated for 16 to 24 hrs by CLSI based broth microdilution method.
Experiment [2] has as its system Acinetobacter baumannii. In words: Potency index, ratio of Norvancomycin MIC to test compound MIC for Carbapenem-resistant Acinetobacter baumannii clinical isolate incubated for 16 to 24 hrs by CLSI based broth microdilution method. In general terms: Dilution methods test growth across graded concentrations, often in twofold steps.
The subject of experiment [3] is Enterococcus faecium. The experiment can be described thus: Antibacterial activity against vancomycin-resistant Enterococcus faecium harboring VanB phenotype incubated for 16 to 24 hrs by CLSI based broth microdilution method.
For experiment [4], the system named is Staphylococcus aureus. The experiment can be described thus: Potency index, ratio of Norvancomycin MIC to test compound MIC for vancomycin-intermediate Staphylococcus aureus incubated for 16 to 24 hrs by CLSI based broth microdilution method.
Experiment [5] deals with Enterococcus faecium. In words: Potency index, ratio of Vancomycin MIC to test compound MIC for vancomycin-resistant Enterococcus faecium incubated for 16 to 24 hrs by CLSI based broth microdilution method.
The test system of experiment [6] is Staphylococcus aureus. In words: Antibacterial activity against vancomycin-intermediate Staphylococcus aureus incubated for 16 to 24 hrs by CLSI based broth microdilution method.
Experiment [7] has as its system Staphylococcus aureus. In words: Antibacterial activity against methicillin-susceptible Staphylococcus aureus incubated for 16 to 24 hrs by CLSI based broth microdilution method.
The test system of experiment [8] is Escherichia coli. In words: Potency index, ratio of Vancomycin MIC to test compound MIC for Escherichia coli […] incubated for 16 to 24 hrs by CLSI based broth microdilution method.
Experiment [9] relates to Acinetobacter baumannii. The experiment can be described thus: Potency index, ratio of Vancomycin MIC to test compound MIC for Carbapenem-resistant Acinetobacter baumannii clinical isolate incubated for 16 to 24 hrs by CLSI based broth microdilution method.
The test system of experiment [10] is Escherichia coli. In words: Potency index, ratio of Norvancomycin MIC to test compound MIC for Escherichia coli […] incubated for 16 to 24 hrs by CLSI based broth microdilution method.
For experiment [11], the system named is Staphylococcus aureus. The experiment can be described thus: Potency index, ratio of Vancomycin MIC to test compound MIC for vancomycin-intermediate Staphylococcus aureus incubated for 16 to 24 hrs by CLSI based broth microdilution method.
Experiment [12] relates to Escherichia coli. The experiment can be described thus: Antibacterial activity against Escherichia coli AB1157 incubated for 16 to 24 hrs by CLSI based broth microdilution method.
The test system of experiment [13] is Enterococcus faecium. The experiment can be described thus: Potency index, ratio of Norvancomycin MIC to test compound MIC for vancomycin-resistant Enterococcus faecium incubated for 16 to 24 hrs by CLSI based broth microdilution method.
The test system of a further experiment is Klebsiella pneumoniae. In words: Antibacterial activity against Klebsiella pneumoniae clinical isolate incubated for 16 to 24 hrs by CLSI based broth microdilution method.
The subject of experiment [14] is Enterococcus faecium. In words: Antibacterial activity against vancomycin-resistant Enterococcus faecium harboring VanM phenotype incubated for 16 to 24 hrs by CLSI based broth microdilution method.
In experiment [15] the test system is Acinetobacter baumannii. In words: Antibacterial activity against Carbapenem-resistant Acinetobacter baumannii clinical isolate incubated for 16 to 24 hrs by CLSI based broth microdilution method.
Another experiment relates to Pseudomonas aeruginosa. The experiment can be described thus: Antibacterial activity against Pseudomonas aeruginosa PAO1 incubated for 16 to 24 hrs by CLSI based broth microdilution method.

≈ marks a conversion by molar mass, not a printed value.

With `CN[C@H](CC(C)C)C(=O)N[C@H]1C(=O)N[C@@H](CC(N)=O)C(=O)N[C@H]2C(=O)N[C@H]3C(=O)N[C@H](C(=O)N[C@H](C(=O)NCc4ccc(-c5ccc(CCNC(=N)N)cc5)cc4)c4cc(O)cc(O)c4-c4cc3ccc4O)[C@H](O)c3ccc(c(Cl)c3)Oc3cc2cc(c3O[C@@H]2O[C@H](CO)[C@@H](O)[C@H](O)[C@H]2O[C@H]2C[C@](C)(N)[C@H](O)[C@H](C)O2)Oc2ccc(cc2Cl)[C@H]1O`, the MIC is 2 µg/mL (≈ 1.18 µM) in the experiment on Enterococcus faecium [1]; 1 µg/mL (≈ 0.588 µM) against Enterococcus faecium [3]; 0.5 µg/mL (≈ 0.294 µM) in the experiment with Staphylococcus aureus [6]; 0.25 µg/mL (≈ 0.147 µM) in the experiment with Staphylococcus aureus [7]; 8 µg/mL (≈ 4.71 µM) against Escherichia coli [12]; > 128 µg/mL against Klebsiella pneumoniae. In addition, the MIC in the experiment on Enterococcus faecium [14] is 2 µg/mL (≈ 1.18 µM); against Acinetobacter baumannii [15], 16 µg/mL (≈ 9.41 µM). In addition, the Ratio with Acinetobacter baumannii [2], in the experiment on Staphylococcus aureus [4], in the experiment with Enterococcus faecium [5], in the experiment on Escherichia coli [8], with Acinetobacter baumannii [9] and in the experiment on Escherichia coli [10] was 2 in each case. In addition, the Ratio in the experiment with Staphylococcus aureus [11] and with Enterococcus faecium [13] was 2 throughout.
As to `CN[C@H](CC(C)C)C(=O)N[C@H]1C(=O)N[C@@H](CC(N)=O)C(=O)N[C@H]2C(=O)N[C@H]3C(=O)N[C@H](C(=O)N[C@H](C(=O)NCc4ccc(-c5ccc(CNC(=N)N)cc5)cc4)c4cc(O)cc(O)c4-c4cc3ccc4O)[C@H](O)c3ccc(c(Cl)c3)Oc3cc2cc(c3O[C@@H]2O[C@H](CO)[C@@H](O)[C@H](O)[C@H]2O[C@H]2C[C@](C)(N)[C@H](O)[C@H](C)O2)Oc2ccc(cc2Cl)[C@H]1O`, the MIC in the experiment with Enterococcus faecium [1] is 2 µg/mL (≈ 1.19 µM); against Enterococcus faecium [3] it was 1 µg/mL (≈ 0.593 µM); in the experiment with Staphylococcus aureus [6], 0.5 µg/mL (≈ 0.297 µM); against Staphylococcus aureus [7] it was 0.125 µg/mL (≈ 0.0742 µM); against Escherichia coli [12], 8 µg/mL (≈ 4.75 µM); against Klebsiella pneumoniae, > 128 µg/mL. The MIC is 2 µg/mL (≈ 1.19 µM) against Enterococcus faecium [14] and 32 µg/mL (≈ 19 µM) in the experiment with Acinetobacter baumannii [15]. Besides, the Ratio in the experiment with Acinetobacter baumannii [2], in the experiment on Staphylococcus aureus [4], with Enterococcus faecium [5], in the experiment on Escherichia coli [8], in the experiment on Acinetobacter baumannii [9] and in the experiment on Escherichia coli [10] was 2 each time. Moreover, the Ratio in the experiment on Staphylococcus aureus [11] and in the experiment with Enterococcus faecium [13] was 2 in each case.
With `CC(=O)NCCCCNC(=O)[C@H]1NC(=O)[C@H]2NC(=O)[C@H](NC(=O)[C@@H]3NC(=O)[C@H](CC(N)=O)NC(=O)[C@H](NC(=O)[C@H](N)CC(C)C)[C@H](O)c4ccc(c(Cl)c4)Oc4cc3cc(c4O[C@@H]3O[C@H](CO)[C@@H](O)[C@H](O)[C@H]3O[C@H]3C[C@](C)(N)[C@H](O)[C@H](C)O3)Oc3ccc(cc3Cl)[C@H]2O)c2ccc(O)c(c2)-c2c(O)cc(O)cc21`, the MIC was > 128 µg/mL with Enterococcus faecium [1]; > 128 µg/mL in the experiment on Enterococcus faecium [3]; 8 µg/mL (≈ 5.17 µM) against Staphylococcus aureus [6]; 4 µg/mL (≈ 2.58 µM) against Staphylococcus aureus [7]; 128 µg/mL (≈ 82.7 µM) against Escherichia coli [12]; > 128 µg/mL against Klebsiella pneumoniae. In addition, the MIC in the experiment with Enterococcus faecium [14], in the experiment with Pseudomonas aeruginosa and in the experiment on Acinetobacter baumannii [15] was 128 µg/mL (≈ 82.7 µM) each time.
In the case of `CC(C)C[C@@H](N)C(=O)N[C@H]1C(=O)N[C@@H](CC(N)=O)C(=O)N[C@H]2C(=O)N[C@H]3C(=O)N[C@H](C(=O)N[C@H](C(=O)NCCCCCCCCN)c4cc(O)cc(O)c4-c4cc3ccc4O)[C@H](O)c3ccc(c(Cl)c3)Oc3cc2cc(c3O[C@@H]2O[C@H](CO)[C@@H](O)[C@H](O)[C@H]2O[C@H]2C[C@](C)(N)[C@H](O)[C@H](C)O2)Oc2ccc(cc2Cl)[C@H]1O`, the MIC is 32 µg/mL (≈ 20.5 µM) in the experiment on Enterococcus faecium [1]; 32 µg/mL (≈ 20.5 µM) against Enterococcus faecium [3]; 4 µg/mL (≈ 2.56 µM) against Staphylococcus aureus [6]; 1 µg/mL (≈ 0.64 µM) against Staphylococcus aureus [7]; 32 µg/mL (≈ 20.5 µM) in the experiment on Escherichia coli [12]; > 128 µg/mL against Klebsiella pneumoniae. In addition, the results for the minimal inhibitory concentration (MIC) against Enterococcus faecium [14], against Pseudomonas aeruginosa and against Acinetobacter baumannii [15] were 32 µg/mL (≈ 20.5 µM), 128 µg/mL (≈ 82 µM) and > 128 µg/mL, respectively.
`CC(C)C[C@@H](N)C(=O)N[C@H]1C(=O)N[C@@H](CC(N)=O)C(=O)N[C@H]2C(=O)N[C@H]3C(=O)N[C@H](C(=O)N[C@H](C(=O)NCCCCN)c4cc(O)cc(O)c4-c4cc3ccc4O)[C@H](O)c3ccc(c(Cl)c3)Oc3cc2cc(c3O[C@@H]2O[C@H](CO)[C@@H](O)[C@H](O)[C@H]2O[C@H]2C[C@](C)(N)[C@H](O)[C@H](C)O2)Oc2ccc(cc2Cl)[C@H]1O`: the MIC in the experiment on Enterococcus faecium [1] was 64 µg/mL (≈ 42.5 µM); in the experiment with Enterococcus faecium [3], 128 µg/mL (≈ 85 µM); with Staphylococcus aureus [6] it was 8 µg/mL (≈ 5.31 µM); against Staphylococcus aureus [7], 0.5 µg/mL (≈ 0.332 µM); against Escherichia coli [12], 32 µg/mL (≈ 21.3 µM); against Klebsiella pneumoniae, > 128 µg/mL. For the same compound, the MIC against Enterococcus faecium [14] was 128 µg/mL (≈ 85 µM); with Pseudomonas aeruginosa it was > 128 µg/mL; in the experiment on Acinetobacter baumannii [15], > 128 µg/mL.
For the compound `CC(C)C[C@@H](N)C(=O)N[C@H]1C(=O)N[C@@H](CC(N)=O)C(=O)N[C@H]2C(=O)N[C@H]3C(=O)N[C@H](C(=O)N[C@H](C(=O)NCCCCNC(=N)N)c4cc(O)cc(O)c4-c4cc3ccc4O)[C@H](O)c3ccc(c(Cl)c3)Oc3cc2cc(c3O[C@@H]2O[C@H](CO)[C@@H](O)[C@H](O)[C@H]2O[C@H]2C[C@](C)(N)[C@H](O)[C@H](C)O2)Oc2ccc(cc2Cl)[C@H]1O`, the MIC with Enterococcus faecium [1] is 32 µg/mL (≈ 20.7 µM); against Enterococcus faecium [3], 32 µg/mL (≈ 20.7 µM); against Staphylococcus aureus [6] it was 2 µg/mL (≈ 1.29 µM); in the experiment on Staphylococcus aureus [7] it was 1 µg/mL (≈ 0.646 µM); in the experiment on Escherichia coli [12], 8 µg/mL (≈ 5.17 µM); against Klebsiella pneumoniae, > 128 µg/mL. For the same compound, the values for the MIC in the experiment on Enterococcus faecium [14], against Pseudomonas aeruginosa and against Acinetobacter baumannii [15] were 64 µg/mL (≈ 41.4 µM), 128 µg/mL (≈ 82.7 µM) and 128 µg/mL (≈ 82.7 µM), respectively.
As for `CC(C)C[C@@H](N)C(=O)N[C@H]1C(=O)N[C@@H](CC(N)=O)C(=O)N[C@H]2C(=O)N[C@H]3C(=O)N[C@H](C(=O)N[C@H](C(=O)NCCNC(=N)N)c4cc(O)cc(O)c4-c4cc3ccc4O)[C@H](O)c3ccc(c(Cl)c3)Oc3cc2cc(c3O[C@@H]2O[C@H](CO)[C@@H](O)[C@H](O)[C@H]2O[C@H]2C[C@](C)(N)[C@H](O)[C@H](C)O2)Oc2ccc(cc2Cl)[C@H]1O`, the MIC was 32 µg/mL (≈ 21.1 µM) with Enterococcus faecium [1]; 128 µg/mL (≈ 84.2 µM) against Enterococcus faecium [3]; 2 µg/mL (≈ 1.32 µM) against Staphylococcus aureus [6]; 0.5 µg/mL (≈ 0.329 µM) with Staphylococcus aureus [7]; 32 µg/mL (≈ 21.1 µM) in the experiment on Escherichia coli [12]; > 128 µg/mL against Klebsiella pneumoniae. Further, the MIC was 32 µg/mL (≈ 21.1 µM) against Enterococcus faecium [14], > 128 µg/mL in the experiment with Pseudomonas aeruginosa and 128 µg/mL (≈ 84.2 µM) against Acinetobacter baumannii [15].
Regarding `CC(C)C[C@@H](N)C(=O)N[C@H]1C(=O)N[C@@H](CC(N)=O)C(=O)N[C@H]2C(=O)N[C@H]3C(=O)N[C@H](C(=O)N[C@H](C(=O)O)c4cc(O)c(CNCCCCCCCCNC(=N)N)c(O)c4-c4cc3ccc4O)[C@H](O)c3ccc(c(Cl)c3)Oc3cc2cc(c3O[C@@H]2O[C@H](CO)[C@@H](O)[C@H](O)[C@H]2O[C@H]2C[C@](C)(N)[C@H](O)[C@H](C)O2)Oc2ccc(cc2Cl)[C@H]1O`, the MIC against Enterococcus faecium [1] was 64 µg/mL (≈ 39.2 µM); in the experiment on Enterococcus faecium [3], 128 µg/mL (≈ 78.4 µM); with Staphylococcus aureus [6] it was 4 µg/mL (≈ 2.45 µM); with Staphylococcus aureus [7], 1 µg/mL (≈ 0.612 µM); in the experiment on Escherichia coli [12], 32 µg/mL (≈ 19.6 µM); with Klebsiella pneumoniae, > 128 µg/mL. Also, the MIC in the experiment on Enterococcus faecium [14] came to 32 µg/mL (≈ 19.6 µM); with Pseudomonas aeruginosa it was 128 µg/mL (≈ 78.4 µM); against Acinetobacter baumannii [15], 128 µg/mL (≈ 78.4 µM).
